Earlier results in patent publication US5064812A, “Metal complexes of N-acetyl-glucosaminyl-N-acetyl-muramoyl-L-alanyl-D-isoglutaminyl-(L)-mes o-diamino-pimelyl-(D-amide)-(L)-D-alanyl-D-alanine and their use in pharmaceuticals” (Sour Pliva, priority 1986, dated 1991).

Columns and labels:
[1] = prior art literature
[2] = prior art literature; remark: listed apart in the source

N-acetyl-glucosaminyl-N-acetyl-muramoyl-L-alanyl-D-isoglutaminyl-(L)-meso- diamino-pimelyl-(D-amide)-(L)-D-alanyl-D-alanine [PMG]
immunostimulating activity [1]: significant immunostimulating
antimetastatic activity [2]: antimetastatic activity
